{"source": "patent US8192962B2", "about": "“Processes for detecting toxic substances” (Daikin Industries, Ltd., priority 2001, dated 2012)", "test_system": "Mitochondria-located protein genes", "assay": "DNA chip mRNA expression in yeast, mitochondria-located protein genes (Table 2)", "assay_type": "cell-based, Saccharomyces cerevisiae S288C", "conditions": "cells incubated two hours with the chemical substance", "method_in_brief": "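In this screen, yeast in logarithmic growth are challenged for two hours with a toxic substance at a non-lethal inhibitory concentration. Their mRNA, converted to Cy3- or Cy5-labeled cDNA, hybridizes at 65° C. to a chip spanning every yeast gene, and expression is expressed as a ratio to untreated cells.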"}
{"substance": "manganese ethylenebis(dithiocarbamate) [(8)]", "values": [{"measurement": "The level of expressed mRNA in the presence of chemical substance/The level of expressed mRNA in the absence of chemical substance", "setting": "yeast gene YAL039C", "result": 1.2}, {"measurement": "The level of expressed mRNA in the presence of chemical substance/The level of expressed mRNA in the absence of chemical substance", "setting": "yeast gene YBL022C", "result": 0.4}, {"measurement": "The level of expressed mRNA in the presence of chemical substance/The level of expressed mRNA in the absence of chemical substance", "setting": "yeast gene YBL030C", "result": 0.8}, {"measurement": "The level of expressed mRNA in the presence of chemical substance/The level of expressed mRNA in the absence of chemical substance", "setting": "yeast gene YBL038W", "result": 1.6}, {"measurement": "The level of expressed mRNA in the presence of chemical substance/The level of expressed mRNA in the absence of chemical substance", "setting": "yeast gene YBL099W", "result": 0.8}, {"measurement": "The level of expressed mRNA in the presence of chemical substance/The level of expressed mRNA in the absence of chemical substance", "setting": "yeast gene YBR003W", "result": 0.9}, {"measurement": "The level of expressed mRNA in the presence of chemical substance/The level of expressed mRNA in the absence of chemical substance", "setting": "yeast gene YBR044C", "result": 1.1}, {"measurement": "The level of expressed mRNA in the presence of chemical substance/The level of expressed mRNA in the absence of chemical substance", "setting": "yeast gene YBR091C", "result": 1.5}, {"measurement": "The level of expressed mRNA in the presence of chemical substance/The level of expressed mRNA in the absence of chemical substance", "setting": "yeast gene YBR122C", "result": 1.3}, {"measurement": "The level of expressed mRNA in the presence of chemical substance/The level of expressed mRNA in the absence of chemical substance", "setting": "yeast gene YBR185C", "result": 1.1}, {"measurement": "The level of expressed mRNA in the presence of chemical substance/The level of expressed mRNA in the absence of chemical substance", "setting": "yeast gene YBR221C", "result": 0.8}, {"measurement": "The level of expressed mRNA in the presence of chemical substance/The level of expressed mRNA in the absence of chemical substance", "setting": "yeast gene YBR251W", "result": 1.3}, {"measurement": "The level of expressed mRNA in the presence of chemical substance/The level of expressed mRNA in the absence of chemical substance", "setting": "yeast gene YBR282W", "result": 1.4}, {"measurement": "The level of expressed mRNA in the presence of chemical substance/The level of expressed mRNA in the absence of chemical substance", "setting": "yeast gene YCL057W", "result": 1.8}, {"measurement": "The level of expressed mRNA in the presence of chemical substance/The level of expressed mRNA in the absence of chemical substance", "setting": "yeast gene YCR046C", "result": 0.9}, {"measurement": "The level of expressed mRNA in the presence of chemical substance/The level of expressed mRNA in the absence of chemical substance", "setting": "yeast gene YCR083W", "result": 1.5}, {"measurement": "The level of expressed mRNA in the presence of chemical substance/The level of expressed mRNA in the absence of chemical substance", "setting": "yeast gene YDL067C", "result": 1.1}, {"measurement": "The level of expressed mRNA in the presence of chemical substance/The level of expressed mRNA in the absence of chemical substance", "setting": "yeast gene YDL181W", "result": 0.6}, {"measurement": "The level of expressed mRNA in the presence of chemical substance/The level of expressed mRNA in the absence of chemical substance", "setting": "yeast gene YDL198C", "result": 1.1}, {"measurement": "The level of expressed mRNA in the presence of chemical substance/The level of expressed mRNA in the absence of chemical substance", "setting": "yeast gene YDR079W", "result": 2.6}, {"measurement": "The level of expressed mRNA in the presence of chemical substance/The level of expressed mRNA in the absence of chemical substance", "setting": "yeast gene YDR178W", "result": 0.9}, {"measurement": "The level of expressed mRNA in the presence of chemical substance/The level of expressed mRNA in the absence of chemical substance", "setting": "yeast gene YDR231C", "result": 1.3}, {"measurement": "The level of expressed mRNA in the presence of chemical substance/The level of expressed mRNA in the absence of chemical substance", "setting": "yeast gene YDR258C", "result": 1.9}, {"measurement": "The level of expressed mRNA in the presence of chemical substance/The level of expressed mRNA in the absence of chemical substance", "setting": "yeast gene YDR298C", "result": 1.2}, {"measurement": "The level of expressed mRNA in the presence of chemical substance/The level of expressed mRNA in the absence of chemical substance", "setting": "yeast gene YDR347W", "result": 1.2}, {"measurement": "The level of expressed mRNA in the presence of chemical substance/The level of expressed mRNA in the absence of chemical substance", "setting": "yeast gene YDR377W", "result": 1.3}, {"measurement": "The level of expressed mRNA in the presence of chemical substance/The level of expressed mRNA in the absence of chemical substance", "setting": "yeast gene YDR529C", "result": 1.3}, {"measurement": "The level of expressed mRNA in the presence of chemical substance/The level of expressed mRNA in the absence of chemical substance", "setting": "yeast gene YEL024W", "result": 1.0}, {"measurement": "The level of expressed mRNA in the presence of chemical substance/The level of expressed mRNA in the absence of chemical substance", "setting": "yeast gene YEL039C", "result": 1.1}, {"measurement": "The level of expressed mRNA in the presence of chemical substance/The level of expressed mRNA in the absence of chemical substance", "setting": "yeast gene YER178W", "result": 0.8}, {"measurement": "The level of expressed mRNA in the presence of chemical substance/The level of expressed mRNA in the absence of chemical substance", "setting": "yeast gene YFL016C", "result": 0.7}, {"measurement": "The level of expressed mRNA in the presence of chemical substance/The level of expressed mRNA in the absence of chemical substance", "setting": "yeast gene YGL018C", "result": 0.8}, {"measurement": "The level of expressed mRNA in the presence of chemical substance/The level of expressed mRNA in the absence of chemical substance", "setting": "yeast gene YGL187C", "result": 0.7}, {"measurement": "The level of expressed mRNA in the presence of chemical substance/The level of expressed mRNA in the absence of chemical substance", "setting": "yeast gene YGL191W", "result": 1.6}, {"measurement": "The level of expressed mRNA in the presence of chemical substance/The level of expressed mRNA in the absence of chemical substance", "setting": "yeast gene YGR008C", "result": 1.9}, {"measurement": "The level of expressed mRNA in the presence of chemical substance/The level of expressed mRNA in the absence of chemical substance", "setting": "yeast gene YGR028W", "result": 1.4}, {"measurement": "The level of expressed mRNA in the presence of chemical substance/The level of expressed mRNA in the absence of chemical substance", "setting": "yeast gene YGR062C", "result": 0.8}, {"measurement": "The level of expressed mRNA in the presence of chemical substance/The level of expressed mRNA in the absence of chemical substance", "setting": "yeast gene YGR076C", "result": 1.9}, {"measurement": "The level of expressed mRNA in the presence of chemical substance/The level of expressed mRNA in the absence of chemical substance", "setting": "yeast gene YGR082W", "result": 0.8}, {"measurement": "The level of expressed mRNA in the presence of chemical substance/The level of expressed mRNA in the absence of chemical substance", "setting": "yeast gene YGR174C", "result": 1.6}, {"measurement": "The level of expressed mRNA in the presence of chemical substance/The level of expressed mRNA in the absence of chemical substance", "setting": "yeast gene YGR244C", "result": 1.8}, {"measurement": "The level of expressed mRNA in the presence of chemical substance/The level of expressed mRNA in the absence of chemical substance", "setting": "yeast gene YHR008C", "result": 0.9}, {"measurement": "The level of expressed mRNA in the presence of chemical substance/The level of expressed mRNA in the absence of chemical substance", "setting": "yeast gene YIL155C", "result": 1.0}, {"measurement": "The level of expressed mRNA in the presence of chemical substance/The level of expressed mRNA in the absence of chemical substance", "setting": "yeast gene YJL096W", "result": 1.3}, {"measurement": "The level of expressed mRNA in the presence of chemical substance/The level of expressed mRNA in the absence of chemical substance", "setting": "yeast gene YJL102W", "result": 0.9}, {"measurement": "The level of expressed mRNA in the presence of chemical substance/The level of expressed mRNA in the absence of chemical substance", "setting": "yeast gene YJL133W", "result": 0.9}, {"measurement": "The level of expressed mRNA in the presence of chemical substance/The level of expressed mRNA in the absence of chemical substance", "setting": "yeast gene YJL166W", "result": 1.4}, {"measurement": "The level of expressed mRNA in the presence of chemical substance/The level of expressed mRNA in the absence of chemical substance", "setting": "yeast gene YJL180C", "result": 1.0}, {"measurement": "The level of expressed mRNA in the presence of chemical substance/The level of expressed mRNA in the absence of chemical substance", "setting": "yeast gene YJR045C", "result": 0.8}, {"measurement": "The level of expressed mRNA in the presence of chemical substance/The level of expressed mRNA in the absence of chemical substance", "setting": "yeast gene YJR077C", "result": 0.8}]}
